A short description of the test: Inhibitory effect on human liver uridine phosphorylase.

Take `O=C1NC(=S)NC(=O)C1Cc1cccc(OCc2ccccc2)c1`: the Ki came to 3.7 µM.

The molecule `O=C1NC(=O)C(Cc2cccc(OCc3ccccc3)c2)C(=O)N1` yielded a Ki of 2.3 µM.

In turn, `O=C1NC(=O)C(Cc2ccc(OCc3ccccc3)cc2)C(=O)N1` registered a Ki of 118 µM.

With `O=C1NC(=O)C(Cc2ccccc2OCc2ccccc2)C(=O)N1`, affinity was put at a Ki of 41.8 µM.

The Ki is the equilibrium dissociation constant of an inhibitor or competing ligand from its target.

These data come from ChEMBL document CHEMBL1131725, “Uridine phosphorylase inhibitors: chemical modification of benzyloxybenzyl-barbituric acid and its effects on urdpase inhibition” (Bioorg Med Chem Lett, 1999).
